Columns and labels:
Assay in all cases: relative viability (nuclei count vs DMSO), 5 days (fraction); higher = more cells survive
COR-L 105 = tested on: COR-L 105
Procedure, shortened: (§1)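 Lung cancer cell lines, seeded in 1536-well plates, were treated the following day by pin tool with a single drug or with five library-drug doses (not always all listed) in √10 steps on top of a fixed anchor-drug dose. Cells were fixed and nuclei stained in one step after 5 days, and nuclei were counted. Relative viability is the nuclei count for treated wells divided by that for vehicle wells, reported as medians of duplicate plates.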

ChaGo-K-1 = tested on: ChaGo-K-1
Procedure, shortened: as §1

201T = tested on: 201T
Procedure, shortened: as §1

NCI-H322M = tested on: NCI-H322M
Procedure, shortened: as §1

NCI-H2126 = tested on: NCI-H2126
Procedure, shortened: as §1

NCI-H2347 = tested on: NCI-H2347
Procedure, shortened: as §1

EPLC-272H = tested on: EPLC-272H
Procedure, shortened: as §1

LCLC-97TM1 = tested on: LCLC-97TM1
Procedure, shortened: as §1

PC-14 = tested on: PC-14
Procedure, shortened: as §1

RERF-LC-KJ = tested on: RERF-LC-KJ
Procedure, shortened: as §1

HCC-78 = tested on: HCC-78
Procedure, shortened: as §1

NCI-H647 = tested on: NCI-H647
Procedure, shortened: as §1

NCI-H520 = tested on: NCI-H520
Procedure, shortened: as §1

NCI-H1666 = tested on: NCI-H1666
Procedure, shortened: as §1

NCI-H23 = tested on: NCI-H23
Procedure, shortened: as §1

NCI-H2087 = tested on: NCI-H2087
Procedure, shortened: as §1

LC-2-ad = tested on: LC-2-ad
Procedure, shortened: as §1

HCC-827 = tested on: HCC-827
Procedure, shortened: as §1

NCI-H1915 = tested on: NCI-H1915
Procedure, shortened: as §1

NCI-H661 = tested on: NCI-H661
Procedure, shortened: as §1

NCI-H2405 = tested on: NCI-H2405
Procedure, shortened: as §1

NCI-H650 = tested on: NCI-H650
Procedure, shortened: as §1

H3255 = tested on: H3255
Procedure, shortened: as §1

Compound: O=C(O)c1ccc(-c2c[nH]c3ncc(-c4ccccc4)cc23)cc1C1CCCC1 + Nc1ncn([C@H]2C[C@H](O)[C@@H](CO)O2)c(=O)n1 [Decitabine] (partner 2 µM)
- relative viability (COR-L 105; first compound 0.04 µM): 0.68
- relative viability (COR-L 105; first compound 0.1265 µM): 0.62
- relative viability (COR-L 105; first compound 0.4 µM): 0.703
- relative viability (COR-L 105; first compound 1.265 µM): 0.72
- relative viability (ChaGo-K-1; first compound 0.04 µM): 0.515
- relative viability (ChaGo-K-1; first compound 0.1265 µM): 0.501
- relative viability (ChaGo-K-1; first compound 0.4 µM): 0.484
- relative viability (ChaGo-K-1; first compound 1.265 µM): 0.478
- relative viability (201T; first compound 0.04 µM): 0.862
- relative viability (201T; first compound 0.1265 µM): 0.808
- relative viability (201T; first compound 0.4 µM): 0.805
- relative viability (201T; first compound 1.265 µM): 0.811
- relative viability (NCI-H322M; first compound 0.04 µM): 0.772
- relative viability (NCI-H322M; first compound 0.1265 µM): 0.704
- relative viability (NCI-H322M; first compound 0.4 µM): 0.723
- relative viability (NCI-H322M; first compound 1.265 µM): 0.66
- relative viability (NCI-H2126; first compound 0.04 µM): 0.585
- relative viability (NCI-H2126; first compound 0.1265 µM): 0.621
- relative viability (NCI-H2126; first compound 0.4 µM): 0.466
- relative viability (NCI-H2126; first compound 1.265 µM): 0.569
- relative viability (NCI-H2347; first compound 0.04 µM): 0.609
- relative viability (NCI-H2347; first compound 0.1265 µM): 0.603
- relative viability (NCI-H2347; first compound 0.4 µM): 0.647
- relative viability (NCI-H2347; first compound 1.265 µM): 0.582
- relative viability (EPLC-272H; first compound 0.04 µM): 0.351
- relative viability (EPLC-272H; first compound 0.1265 µM): 0.402
- relative viability (EPLC-272H; first compound 0.4 µM): 0.388
- relative viability (EPLC-272H; first compound 1.265 µM): 0.277
- relative viability (LCLC-97TM1; first compound 0.04 µM): 0.254
- relative viability (LCLC-97TM1; first compound 0.1265 µM): 0.226
- relative viability (LCLC-97TM1; first compound 0.4 µM): 0.207
- relative viability (LCLC-97TM1; first compound 1.265 µM): 0.195
- relative viability (PC-14; first compound 0.04 µM): 0.19
- relative viability (PC-14; first compound 0.1265 µM): 0.211
- relative viability (PC-14; first compound 0.4 µM): 0.213
- relative viability (PC-14; first compound 1.265 µM): 0.195
- relative viability (RERF-LC-KJ; first compound 0.04 µM): 0.718
- relative viability (RERF-LC-KJ; first compound 0.1265 µM): 0.718
- relative viability (RERF-LC-KJ; first compound 0.4 µM): 0.596
- relative viability (RERF-LC-KJ; first compound 1.265 µM): 0.468
- relative viability (HCC-78; first compound 0.1265 µM): 0.862
- relative viability (HCC-78; first compound 0.4 µM): 0.859
- relative viability (HCC-78; first compound 1.265 µM): 0.622
- relative viability (NCI-H647; first compound 0.04 µM): 0.535
- relative viability (NCI-H647; first compound 0.1265 µM): 0.409
- relative viability (NCI-H647; first compound 0.4 µM): 0.388
- relative viability (NCI-H647; first compound 1.265 µM): 0.283
- relative viability (NCI-H520; first compound 0.04 µM): 0.493
- relative viability (NCI-H520; first compound 0.1265 µM): 0.489
- relative viability (NCI-H520; first compound 0.4 µM): 0.5
- relative viability (NCI-H520; first compound 1.265 µM): 0.358
- relative viability (NCI-H1666; first compound 0.04 µM): 0.689
- relative viability (NCI-H1666; first compound 0.1265 µM): 0.805
- relative viability (NCI-H1666; first compound 0.4 µM): 0.693
- relative viability (NCI-H1666; first compound 1.265 µM): 0.613
- relative viability (NCI-H23; first compound 0.04 µM): 0.329
- relative viability (NCI-H23; first compound 0.1265 µM): 0.256
- relative viability (NCI-H23; first compound 0.4 µM): 0.29
- relative viability (NCI-H23; first compound 1.265 µM): 0.251
- relative viability (NCI-H2087; first compound 0.04 µM): 0.263
- relative viability (NCI-H2087; first compound 0.1265 µM): 0.273
- relative viability (NCI-H2087; first compound 0.4 µM): 0.351
- relative viability (NCI-H2087; first compound 1.265 µM): 0.364
- relative viability (LC-2-ad; first compound 0.04 µM): 0.718
- relative viability (LC-2-ad; first compound 0.1265 µM): 0.756
- relative viability (LC-2-ad; first compound 0.4 µM): 0.737
- relative viability (LC-2-ad; first compound 1.265 µM): 0.651
- relative viability (HCC-827; first compound 0.04 µM): 0.263
- relative viability (HCC-827; first compound 0.1265 µM): 0.316
- relative viability (HCC-827; first compound 0.4 µM): 0.273
- relative viability (HCC-827; first compound 1.265 µM): 0.337
- relative viability (NCI-H1915; first compound 0.04 µM): 0.241
- relative viability (NCI-H1915; first compound 0.1265 µM): 0.229
- relative viability (NCI-H1915; first compound 0.4 µM): 0.259
- relative viability (NCI-H1915; first compound 1.265 µM): 0.251
- relative viability (NCI-H661; first compound 0.04 µM): 0.518
- relative viability (NCI-H661; first compound 0.1265 µM): 0.586
- relative viability (NCI-H661; first compound 0.4 µM): 0.534
- relative viability (NCI-H661; first compound 1.265 µM): 0.524
- relative viability (NCI-H2405; first compound 0.04 µM): 0.71
- relative viability (NCI-H2405; first compound 0.1265 µM): 0.762
- relative viability (NCI-H2405; first compound 0.4 µM): 0.676
- relative viability (NCI-H2405; first compound 1.265 µM): 0.515
- relative viability (NCI-H650; first compound 0.04 µM): 0.284
- relative viability (NCI-H650; first compound 0.1265 µM): 0.317
- relative viability (NCI-H650; first compound 0.4 µM): 0.329
- relative viability (NCI-H650; first compound 1.265 µM): 0.274
- relative viability (H3255; first compound 0.04 µM): 0.64
- relative viability (H3255; first compound 0.1265 µM): 0.477
- relative viability (H3255; first compound 0.4 µM): 0.513
- relative viability (H3255; first compound 1.265 µM): 0.495

Reference: the supplement of paper PMC10307832
